In patent EP1140110B1, “CLATHRATES OF DEHYDROEPIANDROSTERONE AND CORRESPONDING PHARMACEUTICAL COMPOSITIONS” (Euphar Group S.R.L., priority 1998, dated 2000):

Experiments:
[1] = Kinetics and metabolism of exogenous DHEA (100 mg single oral dose, young and elderly male subjects); format: in vivo; details: 100 mg DHEA single oral dose
Protocol: This first part of the experimentation was carried out with the purpose of verifying the kinetics and processes of sulfoconjugation and bioconversion of DHEA as such administered to male subjects. The said subjects were divided into two groups according to age: one group of 7 young subjects aged between 24 and 32, and one group of 10 elderly subjects, aged between 67 and 86. Each one of these subjects was administered 100 mg of DHEA in a single dose by oral route. At 0.5, 1, 2, 3, 4, 6, 9,12 and 24 hours from administration, the blood levels of DHEA, DHEA sulphate, total testosterone and 17-β-estradiol were determined. The evaluations were carried out using the parameter of the maximum delta (maximum peak reached, from which the basal values were subtracted) and the parameter of the area under the curve (triangulation system).

[2] = general statement in prior art section; cited from earlier work

Question: What does the source list for `C[C@]12CC[C@H](O)CC1=CC[C@@H]1[C@@H]2CC[C@]2(C)C(=O)CC[C@@H]12` [DHEA, dehydroepiandrosterone]?
Answer: DHEA blood level response to administration, elderly versus young subjects [1]: significantly greater in the elderly subjects; DHEA sulphate blood level response to administration, elderly versus young subjects [1]: significantly greater in the elderly subjects; molar ratio between DHEA sulphate and DHEA in the response-to-administration curves, young versus elderly [1]: did not show any significant differences; time of DHEA sulphate blood level peak from administration ([1]; both groups (young and elderly)): approximately two; blood levels of 17-β-estradiol versus placebo ([1]; compared with the testosterone finding (evident only in elderly subjects)): the same phenomenon occurred; difference in profile of the testosterone levels versus placebo ([1]; elderly subjects, two-way ANOVA): statistically evident; profile of the testosterone levels versus placebo ([1]; young subjects): did not undergo any substantial differences; solubility in water [2]: practically insoluble in water
